This is an account of results in US20120177712A1, “ANTIMICROBIAL PARTICLE AND A PROCESS FOR PREPARING THE SAME” (priority 2009, published 2012).

For this test, the system named is S. epidermidis. Description: Antimicrobial activity on fabric (washed cotton swatches). It is filed as cell-based. Particulars: in model detergent (0.6 g/L Na-LAS, 1.2 g/L Soda, 0.9 g/L NaCl), CPC 0.02 g/L or equivalent amount of particle, cotton swatches soaked, rinsed three times. How it is done: Cotton swatches having dimension 4×4 cm were used in this example. The swatches were soaked in respective compositions as given below for 30 minutes and then washed for 30 minutes in a shaker bath. After that the swatches were rinsed three times with deionized water in a shaker bath. The liquid to cloth ration were maintained at 20 during the washing and rinsing step.

As to `CCCCCCCCCCCCCCCC[n+]1ccccc1` [CPC, Cetylpyridinium chloride], the Log reduction is 1.99.
